Test results reported in patent US20240343740A1, “MACROCYCLIC GLUCAGON-LIKE PEPTIDE 1 RECEPTOR AGONISTS” (Eli Lilly and Company, priority 2021, published 2024).
Read-outs that look alike come from different tables or passages of the source. Blank lines part the entries; values can stand above or below the compound they belong to.

Tests used:
[1] = cc_pd bond
human GLP-1R [2] = molecular target: T1, human GLP-1R (Homo sapiens, UniProt P43220); test: Human GLP-1 Receptor HEK293 cell cAMP assay, 581 fmol/mg GLP-1R expression density; assay type: cell-based; design: expressed in transfected cells; host or cells: HEK293 clonal cell line; conditions: HEK293 cell line with 581 fmol/mg expression density of GLP-1R; for EC50: geometric mean, read-out: EC50 nM (SEM, n), intracellular cAMP response, relative EC50; for Emax: read-out: Emax % (SEM, n), intracellular cAMP response
Method in brief: (§1)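 HEK293 clonal lines expressing human GLP-1R, 20-point compound curves, 30 min at 37° C in DMEM with 0.1% casein, 250 μM IBMX, 0.5% DMSO. cAMP by HTRF, converted via standard curve to % of maximal human GLP-1(7-36)NH2 response; relative EC50 and Emax from four-parameter logistic fit.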

human GLP-1R [3] = molecular target: T1, human GLP-1R; test: Human GLP-1 Receptor HEK293 cell cAMP assay, 104 fmol/mg GLP-1R expression density; assay type: cell-based; design: expressed in transfected cells; host or cells: HEK293 clonal cell line; conditions: HEK293 cell line with 104 fmol/mg expression density of GLP-1R; for EC50: geometric mean, read-out: EC50 nM (SEM, n), intracellular cAMP response, relative EC50; for Emax: read-out: Emax % (SEM, n), intracellular cAMP response
Method in brief: as §1

[4] = percent of maximal response to GLP-1(7-36)NH2, arithmetic mean

T1 sequence (P43220 24-463): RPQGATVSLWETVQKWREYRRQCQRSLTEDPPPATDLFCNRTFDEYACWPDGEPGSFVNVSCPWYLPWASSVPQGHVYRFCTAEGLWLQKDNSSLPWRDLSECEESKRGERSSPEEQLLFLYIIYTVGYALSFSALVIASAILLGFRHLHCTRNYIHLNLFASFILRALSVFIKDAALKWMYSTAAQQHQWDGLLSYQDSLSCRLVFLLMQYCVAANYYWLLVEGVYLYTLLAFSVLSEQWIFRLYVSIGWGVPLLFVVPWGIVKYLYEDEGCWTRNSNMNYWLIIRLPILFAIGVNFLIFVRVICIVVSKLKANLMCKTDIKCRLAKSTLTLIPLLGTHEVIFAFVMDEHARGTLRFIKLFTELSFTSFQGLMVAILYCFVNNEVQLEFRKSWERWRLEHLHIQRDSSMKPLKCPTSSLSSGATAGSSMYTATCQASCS

Compound: CCOC(=O)Cc1cc(F)c2cc1CCOCc1cc(C#N)ccc1COc1cccc-2n1
ring closure, isolated yield ([1]; from CCOC(=O)Cc1cc(F)c(B2OC(C)(C)C(C)(C)O2)cc1CCOCc1cc(C#N)ccc1COc1cccc(Cl)n1, 14-membered ring, XPhos Pd G2/K3PO4, THF/water, 25.0 mM, 70.0 °C, 0.5 h): 34%

Compound: CCOC(=O)Cc1cc(F)c2cc1CCOCc1cc(ccc1Cl)COc1cccc-2n1
ring closure, isolated yield ([1]; from CCOC(=O)Cc1cc(F)c(B2OC(C)(C)C(C)(C)O2)cc1CCOCc1cc(COc2cccc(Cl)n2)ccc1Cl, 15-membered ring, XPhos Pd G2/K3PO4, THF/water, 27.0 mM, 60.0 °C, 1.5 h): 20%

Compound: CCOC(=O)Cc1cc(F)c2cc1CCOc1cc(C#N)ccc1COc1cccc-2n1
ring closure, isolated yield ([1]; from CCOC(=O)Cc1cc(F)c(Br)cc1CCOc1cc(C#N)ccc1COc1cccc(Br)n1, 13-membered ring, Me6Sn2/Pd(dppf)Cl2, 1,4-dioxane, 50.0 mM, 100.0 °C, 3.0 h): 41%

Compound: CCOC(=O)Cc1cc(F)c2cc1COCCc1cc(Cl)cc(F)c1COc1cccc-2n1
ring closure, isolated yield ([1]; from CCOC(=O)Cc1cc(F)c(Br)cc1COCCc1cc(Cl)cc(F)c1COc1cccc(Cl)n1, 14-membered ring, B2pin2/KOPiv/XPhos Pd G2, then K3PO4, THF/water, 24.0 mM, 55.0 °C, 6.0 h, 2 steps): 27%

Compound: CCOC(=O)Cc1cc(F)c2cc1COCc1cc(Cl)ccc1COc1cccc-2n1
ring closure, isolated yield ([1]; from CCOC(=O)Cc1cc(F)c(Br)cc1COCc1cc(Cl)ccc1COc1cccc(Cl)n1, 13-membered ring, B2neo2/KOPiv/XPhos Pd G2, then K3PO4, THF, then THF/water, 25.0 mM, 55.0 °C, 5.25 h, 2 steps): 32%

Compound: CCOC(=O)Cc1cc(F)c2cc1OCCCc1cc(C#N)ccc1CNc1cccc-2n1
ring closure, isolated yield ([1]; from CCOC(=O)Cc1cc(F)c(B2OCC(C)(C)CO2)cc1OCCCc1cc(C#N)ccc1CNc1cccc(Br)n1, 14-membered ring, PdCl2(dtbpf)/K3PO4, 1,4-dioxane/water, 43.0 mM, 70.0 °C, 2.0 h): 49%

Compound: CCOC(=O)Cc1cc(F)c2cc1OCCCc1cc(C#N)ccc1COc1cccc-2n1
ring closure, isolated yield ([1]; from CCOC(=O)Cc1cc(F)c(Br)cc1OCCCc1cc(C#N)ccc1COc1cccc(Br)n1, 14-membered ring, Me6Sn2/Pd(PPh3)4, 1,4-dioxane, 23.0 mM, 90.0 °C, 60.0 h): 47%

Compound: CCOC(=O)Cc1cc(F)c2cc1OCCCc1cc(C#N)cnc1COc1cccc-2n1
ring closure, isolated yield ([1]; from CCOC(=O)Cc1cc(F)c(Br)cc1OCCCc1cc(C#N)cnc1COc1cccc(Br)n1, 14-membered ring, Me6Sn2/CsF/XPhos Pd G2, 1,4-dioxane, 22.0 mM, 100.0 °C, 18.0 h): 49%

Compound: CCOC(=O)Cc1cc(F)c2cc1OCCCc1cc(ccc1C#N)COc1cccc-2n1
ring closure, isolated yield ([1]; from CCOC(=O)Cc1cc(F)c(B2OC(C)(C)C(C)(C)O2)cc1OCCCc1cc(COc2cccc(Br)n2)ccc1C#N, 15-membered ring, PdCl2(dtbpf)/K3PO4, 1,4-dioxane/water, 27.0 mM, 50.0 °C, 0.25 h): 38%

Compound: CCOC(=O)Cc1cc(F)c2cc1OCCOc1cc(C#N)ccc1COc1cccc-2n1
ring closure, isolated yield ([1]; from CCOC(=O)Cc1cc(F)c(Br)cc1OCCOc1cc(C#N)ccc1COc1cccc(Br)n1, 14-membered ring, B2pin2/KOAc/Pd(dppf)Cl2, then PdCl2/XPhos/K3PO4, THF/water, 8.9 mM, 45.0 °C, 16.0 h, 2 steps): 32%

Compound: CCOC(=O)Cc1ccc2cc1COCC(F)(F)c1cc(C#N)ccc1COc1cccc-2n1
ring closure, isolated yield ([1]; from CCOC(=O)Cc1ccc(Br)cc1COCC(F)(F)c1cc(C#N)ccc1COc1cccc(Br)n1, 14-membered ring, B2pin2/KOAc/Pd(dppf)Cl2, then XPhos Pd G2/K3PO4, 1,4-dioxane/water, 55.0 mM, 60.0 °C, 2.0 h, 2 steps): 21%

Compound: COC(=O)Cc1ccc2cc1COCCc1cc(C#N)ccc1COc1ccnc-2n1
ring closure, isolated yield ([1]; from COC(=O)Cc1ccc(B2OC(C)(C)C(C)(C)O2)cc1COCCc1cc(C#N)ccc1COc1ccnc(Cl)n1, 14-membered ring, XPhos Pd G2/K3PO4, THF/water, 36.0 mM, 50.0 °C, 6.0 h): 22%

Compound: COC(=O)Cc1ccc2cc1COCCc1cc(ccc1C#N)COc1cccc-2n1
ring closure, isolated yield ([1]; from COC(=O)Cc1ccc(B2OC(C)(C)C(C)(C)O2)cc1COCCc1cc(COc2cccc(Cl)n2)ccc1C#N, 15-membered ring, XPhos Pd(crotyl)Cl/K3PO4, THF/water, 33.0 mM, 50.0 °C, 0.83 h): 61%

Compound: COC(=O)Cc1ccc2cc1OCCCc1cc(C#N)ccc1COc1cccc-2n1
ring closure, isolated yield ([1]; from COC(=O)Cc1ccc(B2OC(C)(C)C(C)(C)O2)cc1OCCCc1cc(C#N)ccc1COc1cccc(Br)n1, 14-membered ring, XPhos Pd G2/K3PO4, THF/water, 57.0 mM, 45.0 °C, 2.25 h): 82%

Compound: COC(=O)Cc1ccc2cc1OCCCc1cc(Cl)ccc1COc1cccc-2n1
ring closure, isolated yield ([1]; from COC(=O)Cc1ccc(B2OC(C)(C)C(C)(C)O2)cc1OCCCc1cc(Cl)ccc1COc1cccc(Br)n1, 14-membered ring, XPhos Pd G2/K3PO4, THF/water, 9.2 mM, 40.0 °C, 15.0 h): 74%

EC50 (human GLP-1R [2]): 6.33 nM
Emax (human GLP-1R [2]; [4]): 93.9%
EC50 (human GLP-1R [3]): 17.4 nM
Emax (human GLP-1R [3]; [4]): 71.6%
Compound: COCCOc1cc(C(=O)O)cc2c1nc(Cc1cc(F)c3cc1COCc1cc(-c4ccc(=O)n(C)c4)ccc1COc1cccc-3n1)n2C[C@@H]1CCO1 [Example 75, (S)-2-((1^6-Fluoro-5^4-(1-methyl-6-oxo-1,6-dihydropyridin-3-yl)-3,7-dioxa-2(2,6)-pyridina-1(1,3),5(1,2)-dibenzenacyclooctaphane-1^4-yl)methyl)-4-(2-methoxyethoxy)-1-(oxetan-2-ylmethyl)-1H-benzo[d]imidazole-6-carboxylic acid]

EC50 (human GLP-1R [2]): 102 nM
Emax (human GLP-1R [2]; [4]): 99.9%
EC50 (human GLP-1R [3]): 359 nM
Emax (human GLP-1R [3]; [4]): 78.2%
Compound: O=C(O)c1ccc2nc(Cc3ccc4cc3OCCCc3cc(-c5cnn(C6COC6)c5)ccc3COc3cccc-4n3)n(C[C@@H]3CCO3)c2c1 [Example 76, (S)-1-(Oxetan-2-ylmethyl)-2-((5^4-(1-(oxetan-3-yl)-1H-pyrazol-4-yl)-3,9-dioxa-2(2,6)-pyridina-1(1,3),5(1,2)-dibenzenacyclononaphane-1^4-yl)methyl)-1H-benzo[d]imidazole-6-carboxylic acid]

EC50 (human GLP-1R [2]): 193 nM
Emax (human GLP-1R [2]; [4]): 107%
EC50 (human GLP-1R [3]): 724 nM
Emax (human GLP-1R [3]; [4]): 83%
Compound: CN(C)C(=O)c1ccc(-c2ccc3c(c2)CCCOc2cc(ccc2Cc2nc4ccc(C(=O)O)cc4n2C[C@@H]2CCO2)-c2cccc(n2)OC3)cc1 [Example 77, (S)-2-((5^4-(4-(Dimethylcarbamoyl)phenyl)-3,9-dioxa-2(2,6)-pyridina-1(1,3),5(1,2)-dibenzenacyclononaphane-1^4-yl)methyl)-1-(oxetan-2-ylmethyl)-1H-benzo[d]imidazole-6-carboxylic acid]

EC50 (human GLP-1R [2]): 95.8 nM
Emax (human GLP-1R [2]; [4]): 99.8%
EC50 (human GLP-1R [3]): 248 nM
Emax (human GLP-1R [3]; [4]): 74.1%
Compound: Nc1cc(-c2ccc3c(c2)CCCOc2cc(ccc2Cc2nc4ccc(C(=O)O)cc4n2C[C@@H]2CCO2)-c2cccc(n2)OC3)ccn1 [Example 78, (S)-2-((5^4-(2-Aminopyridin-4-yl)-3,9-dioxa-2(2,6)-pyridina-1(1,3),5(1,2)-dibenzenacyclononaphane-1^4-yl)methyl)-1-(oxetan-2-ylmethyl)-1H-benzo[d]imidazole-6-carboxylic acid]

EC50 (human GLP-1R [2]): 369 nM
Emax (human GLP-1R [2]; [4]): 34.7%
EC50 (human GLP-1R [3]): 648 nM
Emax (human GLP-1R [3]; [4]): 9.53%
Compound: Cn1ccc(-c2ccc3c(c2)CCCOc2cc(ccc2Cc2nc4ccc(C(=O)O)cc4n2C[C@@H]2CCO2)-c2cccc(n2)OC3)cc1=O [Example 79, (S)-2-((5^4-(1-Methyl-2-oxo-1,2-dihydropyridin-4-yl)-3,9-dioxa-2(2,6)-pyridina-1(1,3),5(1,2)-dibenzenacyclononaphane-1^4-yl)methyl)-1-(oxetan-2-ylmethyl)-1H-benzo[d]imidazole-6-carboxylic acid]

EC50 (human GLP-1R [2]): 130 nM
Emax (human GLP-1R [2]; [4]): 84.1%
EC50 (human GLP-1R [3]): 303 nM
Emax (human GLP-1R [3]; [4]): 56%
Compound: O=C(O)c1ccc2nc(Cc3ccc4cc3OCCCc3cc(-c5ccc(=O)[nH]c5)ccc3COc3cccc-4n3)n(C[C@@H]3CCO3)c2c1 [Example 80, (S)-1-(Oxetan-2-ylmethyl)-2-((5^4-(6-oxo-1,6-dihydropyridin-3-yl)-3,9-dioxa-2(2,6)-pyridina-1(1,3),5(1,2)-dibenzenacyclononaphane-1^4-yl)methyl)-1H-benzo[d]imidazole-6-carboxylic acid]

Compound: (S)-2-((5^4-Cyano-1^6,2^3-difluoro-3,8-dioxa-2(2,6)-pyridina-1(1,3),5(1,2)-dibenzenacyclononaphane-1^4-yl)methyl)-4-(2-methoxyethoxy)-1-(oxetan-2-ylmethyl)-1H-benzo[d]imidazole-6-carboxylic acid [Example 60]
EC50 (human GLP-1R [2]): 0.938 nM
Emax % (SEM, n), intracellular cAMP response (human GLP-1R [2]; [4]): 109%
EC50 (human GLP-1R [3]): 2.99 nM
Emax % (SEM, n), intracellular cAMP response (human GLP-1R [3]; [4]): 87.9%
